According to article PMC7269146, “Jingzhaotoxin-X, a gating modifier of Kv4.2 and Kv4.3 potassium channels purified from the venom of the Chinese tarantula Chilobrachys jingzhao” (The Journal of Venomous Animals and Toxins Including …, 2020):
Where a SMILES comes first, the peptide text is derived from it. Bridges are numbered along the chain shown (N, C = ends).

Biological target: T1, Kv4.2 (Rattus norvegicus, UniProt Q63881)
T1 construct: expressed in transfected cells; host or cells: HEK293t
T1 sequence (Q63881 1-630): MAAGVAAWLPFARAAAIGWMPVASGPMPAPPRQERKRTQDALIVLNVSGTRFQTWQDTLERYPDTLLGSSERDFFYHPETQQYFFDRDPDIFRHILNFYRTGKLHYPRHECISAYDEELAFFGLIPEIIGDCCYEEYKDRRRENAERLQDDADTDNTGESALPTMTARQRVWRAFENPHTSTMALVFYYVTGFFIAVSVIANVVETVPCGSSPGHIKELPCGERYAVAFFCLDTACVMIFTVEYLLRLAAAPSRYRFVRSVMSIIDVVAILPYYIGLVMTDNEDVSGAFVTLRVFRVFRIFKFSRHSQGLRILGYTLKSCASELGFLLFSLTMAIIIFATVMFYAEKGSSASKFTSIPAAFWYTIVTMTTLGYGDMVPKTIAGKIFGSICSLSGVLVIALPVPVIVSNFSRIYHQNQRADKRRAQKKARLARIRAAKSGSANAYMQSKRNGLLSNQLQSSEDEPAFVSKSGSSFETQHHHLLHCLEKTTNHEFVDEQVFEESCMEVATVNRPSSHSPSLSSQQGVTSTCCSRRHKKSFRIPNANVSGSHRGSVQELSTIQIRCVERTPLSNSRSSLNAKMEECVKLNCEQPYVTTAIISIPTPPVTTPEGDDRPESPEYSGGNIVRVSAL
Assay: current-voltage relationship / activation, Kv4.2
Type: cell-based
Text: Rat cDNA genes encoding Kv4.2 (Accession: NM_031730.2) and Kv4.3 (Accession: AB003587.1) were subcloned to vector pcDNA3.1. In addition, human cDNA genes encoding Nav1.7 (Accession: DQ857292.1) and Nav1.5 (Accession: AB158469.2) were subcloned to vectors pcDNA3.1-mod and pcDNA3.1, separately. Then, Kv4.2, Kv4.3, Nav1.5 and Nav1.7 constructs were transiently transfected into the human embryonic kidney 293t (HEK293t) cells using lipofectamine 2000 (Invitrogen, USA) in accordance with manufacturer protocols. Thereafter, HEK293 cells were inoculated within Dulbecco’s modified Eagle’s medium (DMEM) containing 10% fetal bovine serum (FBS) at 5% CO2 and 37°C. The Kv4.3 channel and the Kv4.2 counterpart were then transfected in the absence of β subunit. Subsequently, cells were incubated with a DNA-lipofectamine mixture (one reporter plasmid for green fluorescence protein and channel constructs) for 4-6 h, and were washed with the fresh medium.
An EPC-10 patch-clamp amplifier (HEKA, Germany) was employed to record the potassium currents at the configuration of whole-cell patch-clamp under an ambient temperature of 22-25°C. The resistance was 2.0-3.0 MΩ when the recording pipette contained a full volume of internal solution (supplemented with 140 mM KCl, 10 mM HEPES, 2.5 mM MgCl2, 5 mM ATP and 11 mM EGTA). KOH was utilized to adjust the pH to 7.2, while sucrose was employed to adjust the osmolarity to 310 mOsm/L. The culture medium was replaced with an external solution containing 150 mM NaCl, 2.5 mM CaCl2, 10 mM HEPES, 2 mM MgCl2, 5 mM KCl, and 10 mM D-glucose. Similarly, sucrose and NaOH were applied to adjust the osmolarity to 330 mOsm/L and pH to 7.4. […] The series resistance was maintained at about 5 MΩ, with 65-70% compensation. Finally, the leakage currents and linear capacitance were subtracted digitally according to the P/4 protocol.
The voltage-dependent inhibition of Kv4.2 and Kv4.3 channels by JZTX-X was determined by the depolarizing pulses to potentials in 10 mV steps from −80 to +60 mV at an interval of 10 s and the holding potential of -80 mV. […] For quantifying the voltage-depending inhibition of Kv4.2 and Kv4.3 channels, the relative current was drawn based on the membrane potential. Under control conditions, those threshold potentials to initially activate Kv4.2 and Kv4.3 currents were around -40 mV. The JZTX-X treatment at 500 nM inhibited the Kv4.2 and Kv4.3 currents, and then the I-V relation shifted to the right by about 30 mV (from -39.5 ± 1.9 mV to -11.3 ± 1.2 mV ) and 40 mV (from -39.8 ± 1.5 mV to -2.5 ± 0.9 mV ), separately (Fig. 5C and D). Additionally, the channel conductance also shifted rightward by around 30 mV (data not shown).
Figure 5. Effects of JZTX-X on I-V relationships in Kv4.2 and Kv4.3 channels: Each cell was held at the voltage of -80 mV, and the […] current families were induced at the depolarization steps of 300 ms to different potentials (range, -80 mV to +60 mV at 10 mV increments). […] ( C ) and ( D ) represented I-V relation for Kv4.2 (C) and Kv4.3 (D) currents before (filled circles) and after 100 nM (open circles) or 500 nM (filled inverted triangles) JZTX-X treatment, respectively. ( E ) and ( F ) represented the fractional suppression on Kv4.2 (E) and Kv4.3 (F) currents after 100 nM (filled circles) and 500 nM (open circles) JZTX-X treatment, respectively. All data were expressed as mean ± S.E.M (n = 5-7 cells).

## CC(C)C[C@@H]1NC(=O)[C@H](CCCCN)NC(=O)[C@H](Cc2ccc(O)cc2)NC(=O)[C@@H]2CSSC[C@@H]3NC(=O)[C@H](Cc4ccc(O)cc4)NC(=O)[C@H](Cc4ccccc4)NC(=O)CNC(=O)[C@H](C)NC(=O)[C@H](CSSC[C@H](NC(=O)[C@@H](N)CC(C)C)C(=O)N[C@@H](CO)C(=O)N[C@@H](CCCNC(=N)N)C(=O)N[C@@H](CCC(=O)O)C(=O)NCC(=O)N[C@@H](CCC(=O)O)C(=O)N[C@@H](Cc4ccccc4)C(=O)N2)NC(=O)[C@H](CSSC[C@@H](C(=O)N[C@@H](Cc2ccc(O)cc2)C(=O)N[C@@H](CCCNC(=N)N)C(=O)N[C@@H](CC(N)=O)C(=O)O)NC(=O)[C@H](Cc2c[nH]cn2)NC(=O)[C@H](CC(C)C)NC(=O)[C@H](C(C)C)NC(=O)[C@H](Cc2ccccc2)NC(=O)[C@H](C)NC(=O)[C@H](CCCCN)NC3=O)NC(=O)[C@H](CCCCN)NC(=O)[C@H](CCCNC(=N)N)NC1=O [JZTX-X, Jingzhaotoxin-X] (H-LCSREGEFCYKLRKCCAGFYCKAFVLHCYRN-OH; disulfide 2-16, 9-21, 15-28; N-terminus assumed)
100 nM, -80 to +60 mV in 10 mV steps
  reduction of Kv4.2 currents over voltage range: reduced the currents of Kv4.2 channels throughout the whole voltage range
500 nM, control -39.5 ± 1.9 mV, holding -80 mV, n = 5-7 cells
  I-V relation potential after toxin, Kv4.2: -11.3 ± 1.2 mV
500 nM, holding -80 mV
  rightward shift of I-V relation, Kv4.2: about 30 mV
Data not shown, channel not named separately
  rightward shift of channel conductance, Kv4.2: about 30 mV
Test potentials -10 to +60 mV, 100 nM and 500 nM
  voltage dependence of Kv4.2 inhibition: dependent on voltage
